Read-outs that look alike come from different tables or passages of the source.
How the values were obtained:
CYP1A = target: T1, CYP1A (Homo sapiens, UniProt P05177); test: CYP inhibition in human liver microsomes, CYP1A; assay type: in vitro ADME; details: probe phenacetin, substrate phenacetin, read-out: CYP1A Inh %
T1 construct: incubated with human liver microsomes; tissue Eurofins ITEMG232; host or cells: human liver microsomes
T1 sequence (P05177 1-516): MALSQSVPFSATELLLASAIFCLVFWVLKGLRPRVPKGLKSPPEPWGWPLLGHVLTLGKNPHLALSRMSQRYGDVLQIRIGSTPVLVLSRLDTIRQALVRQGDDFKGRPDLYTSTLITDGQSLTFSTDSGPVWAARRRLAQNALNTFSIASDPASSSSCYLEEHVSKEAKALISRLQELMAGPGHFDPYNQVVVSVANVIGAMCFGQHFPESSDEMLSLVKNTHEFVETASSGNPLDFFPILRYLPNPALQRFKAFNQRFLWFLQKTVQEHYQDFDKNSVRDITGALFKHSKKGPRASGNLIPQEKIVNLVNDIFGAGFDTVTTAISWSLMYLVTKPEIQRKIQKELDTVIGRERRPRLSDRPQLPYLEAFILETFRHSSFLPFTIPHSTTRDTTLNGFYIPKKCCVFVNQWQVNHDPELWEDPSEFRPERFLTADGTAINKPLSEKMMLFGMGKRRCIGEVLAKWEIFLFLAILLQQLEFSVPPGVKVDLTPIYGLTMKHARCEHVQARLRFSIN
Method: (§1) The following substrates were used: CYP1A phenacetin, CYP2B6 bupropion, CYP2C8 paclitaxel and amodiaquine, CYP2C9 diclofenac, CYP2C19 omeprazole, CYP2D6 dextromethorphan, CYP3A midazolam and testosterone. At the end of the incubation, the formation of metabolite was monitored by HPLC-MS/MS as the peak area response.

[1] = Metabolic stability in pooled human liver microsomes; assay type: in vitro ADME; details: pooled human liver microsomes 0.5 mg/ml, 1 μM test compound, 37° C.
Method: Pooled human liver microsomes in PBS at a concentration of 0.5 mg/ml was incubated with or without 1 mM NADPH for 70 min at 37° C. Test compound was added after 10 minutes to a final concentration of 1 μM. Samples were withdrawn at 0, 5, 15 and 60 minutes and added to test tubes containing acetonitrile, to stop the reaction, and with terfenadine, used as internal standard. After centrifugation at 10 000×g for 5 minutes the supernatant was diluted 1:1 with 1% formic acid. Samples were separated on a reverse phase column and detected by triple quadrupole MSMS (Agilant model 6540). The concentration of the parent compound at the different time points was measured with an external standard curve using terfenadine as internal standard and the initial metabolic rate in the presence or absence of NADPH calculated.

CYP3A4 = CYP3A4 (Homo sapiens, UniProt P08684); test: CYP inhibition in human liver microsomes, CYP3A4 (midazolam); assay type: in vitro ADME; design: incubated with human liver microsomes; tissue Eurofins ITEMG232; host or cells: human liver microsomes; details: probe midazolam, substrate midazolam, read-out: CYP3A4 midazolam Inh %
Method: as §1

CYP2C19 = target: T2, CYP2C19 (Homo sapiens, UniProt P33261); test: CYP inhibition in human liver microsomes, CYP2C19; assay type: in vitro ADME; details: probe omeprazole, substrate omeprazole, read-out: CYP2C19 Inh %
T2 construct: incubated with human liver microsomes; tissue Eurofins ITEMG232; host or cells: human liver microsomes
Method: as §1

CYP3A4&5 = test: CYP inhibition in human liver microsomes, CYP3A4&5 (testosterone); assay type: in vitro ADME; details: probe testosterone, substrate testosterone, read-out: CYP3A4&5 testosterone Inh %
Method: as §1

CYP2C9 = CYP2C9 (Homo sapiens, UniProt P11712); test: CYP inhibition in human liver microsomes, CYP2C9; assay type: in vitro ADME; design: incubated with human liver microsomes; tissue Eurofins ITEMG232; host or cells: human liver microsomes; details: probe diclofenac, substrate diclofenac, read-out: CYP2C9 Inh %
Method: as §1

CYP2B6 = target: T3, CYP2B6 (Homo sapiens, UniProt P20813); test: CYP inhibition in human liver microsomes, CYP2B6; assay type: in vitro ADME; details: probe bupropion, substrate bupropion, read-out: CYP2B6 Inh %
T3 construct: incubated with human liver microsomes; tissue Eurofins ITEMG232; host or cells: human liver microsomes
T3 sequence (P20813 1-491): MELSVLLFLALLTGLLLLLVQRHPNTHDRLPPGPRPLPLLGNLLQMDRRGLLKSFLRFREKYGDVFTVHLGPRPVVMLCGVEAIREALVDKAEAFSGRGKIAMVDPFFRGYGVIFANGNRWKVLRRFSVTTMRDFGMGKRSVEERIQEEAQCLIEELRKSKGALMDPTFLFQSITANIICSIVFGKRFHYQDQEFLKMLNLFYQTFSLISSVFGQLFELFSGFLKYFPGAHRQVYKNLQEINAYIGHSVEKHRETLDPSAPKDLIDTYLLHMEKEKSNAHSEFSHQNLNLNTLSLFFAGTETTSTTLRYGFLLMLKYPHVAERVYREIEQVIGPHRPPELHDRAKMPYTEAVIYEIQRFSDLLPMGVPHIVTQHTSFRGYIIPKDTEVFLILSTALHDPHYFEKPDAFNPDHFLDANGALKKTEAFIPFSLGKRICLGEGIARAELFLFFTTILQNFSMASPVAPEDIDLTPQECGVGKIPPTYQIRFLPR
Method: as §1

CYP2D6 = target: T4, CYP2D6 (Homo sapiens, UniProt P10635); test: CYP inhibition in human liver microsomes, CYP2D6; assay type: in vitro ADME; details: probe dextromethorphan, substrate dextromethorphan, read-out: CYP2D6 Inh %
T4 construct: incubated with human liver microsomes; tissue Eurofins ITEMG232; host or cells: human liver microsomes
Method: as §1

CYP2C8 = target: T5, CYP2C8 (Homo sapiens, UniProt P10632); test: CYP inhibition in human liver microsomes, CYP2C8; assay type: in vitro ADME; details: probe paclitaxel and amodiaquine, substrate paclitaxel and amodiaquine, read-out: CYP2C8 Inh %
T5 construct: incubated with human liver microsomes; tissue Eurofins ITEMG232; host or cells: human liver microsomes
T5 sequence (P10632 1-490): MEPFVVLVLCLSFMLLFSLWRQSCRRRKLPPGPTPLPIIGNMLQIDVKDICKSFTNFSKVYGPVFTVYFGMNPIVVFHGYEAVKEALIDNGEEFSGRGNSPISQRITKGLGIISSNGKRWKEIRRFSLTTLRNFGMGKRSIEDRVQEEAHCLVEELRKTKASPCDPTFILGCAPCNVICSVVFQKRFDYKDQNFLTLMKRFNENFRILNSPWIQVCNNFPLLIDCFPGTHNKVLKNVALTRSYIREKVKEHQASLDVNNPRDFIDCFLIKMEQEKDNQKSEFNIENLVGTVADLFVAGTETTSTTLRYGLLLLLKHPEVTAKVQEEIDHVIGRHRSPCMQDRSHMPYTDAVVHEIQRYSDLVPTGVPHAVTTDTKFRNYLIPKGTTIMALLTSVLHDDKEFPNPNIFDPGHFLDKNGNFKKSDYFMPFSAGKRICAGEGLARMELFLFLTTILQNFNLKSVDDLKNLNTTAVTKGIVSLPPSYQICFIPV
Method: as §1

[2] = target: T6, human recombinant AT2 receptor (Homo sapiens, UniProt P50052); test: Binding to AT2 receptor, radiometric scintillation assay (Eurofins); details: ligand 125I CGP 42112A, tested at 1, 10, 100 and 1000 nM
T6 construct: purchased Eurofins ITEM26
T6 sequence (P50052 1-363): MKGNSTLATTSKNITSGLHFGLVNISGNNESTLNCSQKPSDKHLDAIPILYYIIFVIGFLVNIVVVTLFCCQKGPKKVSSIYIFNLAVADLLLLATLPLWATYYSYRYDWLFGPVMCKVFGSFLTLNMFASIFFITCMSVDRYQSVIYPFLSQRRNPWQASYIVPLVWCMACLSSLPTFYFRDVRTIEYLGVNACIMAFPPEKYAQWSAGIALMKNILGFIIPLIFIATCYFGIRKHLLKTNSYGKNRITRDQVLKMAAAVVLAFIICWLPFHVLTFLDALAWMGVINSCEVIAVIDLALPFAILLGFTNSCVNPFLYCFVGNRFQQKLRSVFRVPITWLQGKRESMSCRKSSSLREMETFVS
Method: Compounds were evaluated for binding to the human recombinant AT2 and AT1 receptor according to Eurofins protocol ITEM26 and ITEM24 using a radiometric scintillation assay.

[3] = with 1 mM NADPH, read-out: T1/2, + NaDPH
[4] = without NADPH, read-out: T1/2, no NaDPH

T4 sequence (P10635 whole entry): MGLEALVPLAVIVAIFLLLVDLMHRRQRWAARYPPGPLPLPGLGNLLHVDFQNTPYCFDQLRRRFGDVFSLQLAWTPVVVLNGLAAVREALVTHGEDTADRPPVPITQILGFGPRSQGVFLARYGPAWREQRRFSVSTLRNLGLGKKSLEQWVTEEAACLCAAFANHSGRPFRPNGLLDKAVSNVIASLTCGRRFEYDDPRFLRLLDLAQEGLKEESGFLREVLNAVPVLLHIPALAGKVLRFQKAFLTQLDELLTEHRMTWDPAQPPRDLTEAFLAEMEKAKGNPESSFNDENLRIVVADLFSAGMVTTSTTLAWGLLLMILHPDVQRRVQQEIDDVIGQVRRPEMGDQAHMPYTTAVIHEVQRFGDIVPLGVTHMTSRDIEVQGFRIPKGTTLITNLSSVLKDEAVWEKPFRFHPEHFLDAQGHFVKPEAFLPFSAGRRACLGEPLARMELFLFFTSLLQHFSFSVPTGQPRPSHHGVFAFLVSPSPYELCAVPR
Sequence of CYP3A4 (P08684 whole entry): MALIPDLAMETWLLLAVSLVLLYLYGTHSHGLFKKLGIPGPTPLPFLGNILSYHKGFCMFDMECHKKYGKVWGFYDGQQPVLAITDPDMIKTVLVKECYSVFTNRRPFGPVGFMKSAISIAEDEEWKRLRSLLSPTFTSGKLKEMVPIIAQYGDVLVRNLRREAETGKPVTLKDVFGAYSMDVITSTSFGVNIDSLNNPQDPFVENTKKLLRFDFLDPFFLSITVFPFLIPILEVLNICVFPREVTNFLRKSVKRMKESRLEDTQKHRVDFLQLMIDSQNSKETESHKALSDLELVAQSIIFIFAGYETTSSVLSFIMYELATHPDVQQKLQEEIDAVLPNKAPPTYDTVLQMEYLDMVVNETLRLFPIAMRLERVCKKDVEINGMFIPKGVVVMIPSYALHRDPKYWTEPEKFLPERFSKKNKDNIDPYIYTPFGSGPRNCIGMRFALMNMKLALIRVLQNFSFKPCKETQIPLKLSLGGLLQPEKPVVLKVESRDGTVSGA
T2 sequence (P33261 whole entry): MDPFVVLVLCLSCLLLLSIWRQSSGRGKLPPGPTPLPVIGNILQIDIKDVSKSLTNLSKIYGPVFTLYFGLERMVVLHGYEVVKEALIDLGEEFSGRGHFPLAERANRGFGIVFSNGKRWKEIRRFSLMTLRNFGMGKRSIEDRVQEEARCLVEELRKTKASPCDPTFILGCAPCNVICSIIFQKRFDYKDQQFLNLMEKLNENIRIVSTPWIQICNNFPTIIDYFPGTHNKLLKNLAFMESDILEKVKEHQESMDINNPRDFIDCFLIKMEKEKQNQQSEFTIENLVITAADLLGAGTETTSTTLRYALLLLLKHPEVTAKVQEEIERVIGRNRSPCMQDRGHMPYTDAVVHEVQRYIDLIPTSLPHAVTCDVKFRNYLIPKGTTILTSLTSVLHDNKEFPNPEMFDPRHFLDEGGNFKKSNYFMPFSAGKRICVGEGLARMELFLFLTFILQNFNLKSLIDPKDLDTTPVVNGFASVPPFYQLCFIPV
Sequence of CYP2C9 (P11712 whole entry): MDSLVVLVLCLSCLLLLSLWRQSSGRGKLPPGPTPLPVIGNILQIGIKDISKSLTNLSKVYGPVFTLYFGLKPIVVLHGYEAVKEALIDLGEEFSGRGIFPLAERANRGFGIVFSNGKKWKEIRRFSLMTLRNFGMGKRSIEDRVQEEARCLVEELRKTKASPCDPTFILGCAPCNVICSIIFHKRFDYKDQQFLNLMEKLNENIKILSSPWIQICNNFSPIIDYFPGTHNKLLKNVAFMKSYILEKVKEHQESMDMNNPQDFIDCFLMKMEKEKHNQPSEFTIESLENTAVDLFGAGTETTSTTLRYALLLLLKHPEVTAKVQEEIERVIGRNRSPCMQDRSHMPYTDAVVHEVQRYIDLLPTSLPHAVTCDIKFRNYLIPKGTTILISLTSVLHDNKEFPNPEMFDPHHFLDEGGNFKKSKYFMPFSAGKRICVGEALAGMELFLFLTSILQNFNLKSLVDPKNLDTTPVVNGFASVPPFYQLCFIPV

| Compound | inhibition at 10 µM (CYP1A) [%] | half-life at 1 μM [1, 3] [h] | half-life at 1 μM [1, 4] [h] | inhibition at 10 µM (CYP3A4) [%] | inhibition at 10 µM (CYP2C19) [%] | inhibition at 10 µM (CYP3A4&5) [%] | inhibition at 10 µM (CYP2C9) [%] | inhibition at 10 µM (CYP2B6) [%] | inhibition at 10 µM (CYP2D6) [%] | inhibition at 10 µM (CYP2C8) [%] | IC50 [2] [nM] |
| --- | --- | --- | --- | --- | --- | --- | --- | --- | --- | --- | --- |
| Cc1nccn1Cc1ccc(-c2cc(CC(C)C)sc2S(=O)(=O)NC(=O)NCCCC(F)(F)F)cc1F [Example 18, 3-(3-{3-Fluoro-4-[(2-methyl-1H-imidazol-1-yl)methyl]phenyl}-5-isobutyl-2-thienylsulfonyl)-1-(4,4,4-trifluorobutyl)urea] | 15 | 0.5 | > 1 | 50 | 78 | 24 | 62 | 59 | 20 | 72 | – |
| CCc1nccn1Cc1ccc(-c2cc(CC(C)C)sc2S(=O)(=O)NC(=O)NCc2ccccn2)cc1 [Example 9, 3-(3-{p-[(2-Ethyl-1H-imidazol-1-yl)methyl]phenyl}-5-isobutyl-2-thienylsulfonyl)-1-[(2-pyridyl)methyl]urea] | -9 | > 1 | > 1 | -19 | 18 | 17 | 28 | 0 | 24 | 52 | – |
| Cc1nccn1Cc1ccc(-c2cc(CC(C)C)sc2S(=O)(=O)NC(=O)NCCC(F)(F)F)cc1 [Example 3, 3-(5-isobutyl-3-{p-[(2-Methyl-1H-imidazol-1-yl)methyl]phenyl}-2-thienylsulfonyl)-1-(3,3,3-trifluoropropyl)-urea] | -4.2 | > 1 | > 1 | 4.1 | 37.3 | 8.2 | 21.6 | 9.9 | 5.5 | 25.3 | – |
| Cc1nccn1Cc1ccc(-c2cc(CC(C)C)sc2S(=O)(=O)NC(=O)NCCC(F)F)cc1 [Example 29, 1-(3,3-Difluoropropyl)-3-(5-isobutyl-3-{p-[(2-methyl-1H-imidazol-1-yl)methyl]phenyl}-2-thienylsulfonyl)urea] | – | – | – | – | – | – | – | – | – | – | 33 |
| Cc1nccn1Cc1ccc(-c2cc(CC(C)C)sc2S(=O)(=O)NC(=O)NCCC(F)(F)F)c(F)c1 [Example 26, 3-(3-{2-Fluoro-4-[(2-methyl-1H-imidazol-1-yl)methyl]phenyl}-5-isobutyl-2-thienylsulfonyl)-1-(3,3,3-trifluoropropyl)urea] | – | > 1 | > 1 | – | – | – | – | – | – | – | 25 |
| Cc1cn(Cc2ccc(-c3cc(CC(C)C)sc3S(=O)(=O)NC(=O)NCCC(F)(F)F)cc2)c(C)n1 [Example 8, 3-(3-{p-[(2,4-Dimethyl-1H-imidazol-1-yl)methyl]phenyl}-5-isobutyl-2-thienylsulfonyl)-1-(3,3,3-trifluoropropyl)urea] | 21.2 | 0.767 | > 1 | 17.5 | 95.8 | 29.8 | 24 | 18.8 | 0 | 60.2 | – |
| Cc1nccn1Cc1ccc(-c2cc(CC(C)C)sc2S(=O)(=O)NC(=O)NCCCF)cc1 [Example 28, 1-(3-Fluoropropyl)-3-(5-isobutyl-3-{p-[(2-methyl-1H-imidazol-1-yl)methyl]phenyl}-2-thienylsulfonyl)urea] | – | > 1 | > 1 | – | – | – | – | – | – | – | 32 |
| Cc1nccn1Cc1ccc(-c2cc(CC(C)C)sc2S(=O)(=O)NC(=O)NCc2ccccc2)cc1F [Example 12, 1-Benzyl-3-(3-{3-fluoro-4-[(2-methyl-1H-imidazol-1-yl)methyl]phenyl}-5-isobutyl-2-thienylsulfonyl)urea] | 4 | – | – | 32 | 62 | 24 | 64 | 33 | 58 | 51 | – |
| Cc1nccn1Cc1ccc(-c2cc(CC(C)C)sc2S(=O)(=O)NC(=O)NCC(F)(F)F)c(F)c1 [Example 27, 3-(3-{2-Fluoro-4-[(2-methyl-1H-imidazol-1-yl)methyl]phenyl}-5-isobutyl-2-thienylsulfonyl)-1-(2,2,2-trifluoroethyl)urea] | – | – | – | – | – | – | – | – | – | – | 61 |
| CCc1nccn1Cc1ccc(-c2cc(CC(C)C)sc2S(=O)(=O)NC(=O)NCCC(F)(F)F)cc1F.O=C(O)C(F)(F)F [Example 30, 1-[(3-{4-[(2-ethyl-1H-imidazol-1-yl)methyl]-3-fluorophenyl}-5-(2-methylpropyl)thiophen-2-yl)sulfonyl]-3-(3,3,3-trifluoropropyl)urea trifluoroacetic acid] | -1 | 0.667 | > 1 | -3 | 53 | 13 | 61 | 30 | 12 | 64 | – |
